pIC50: −log10 of the molar value.
How the values were obtained:
[1] = system: Human hepatic stellate cells; assay: Active human hepatic stellate cell dedifferentiation test (decrease in ACTA2 mRNA expression); type: cell-based; details: 3 days differentiation then 2 days with compound, read-out: IC50 (rate of decrease in ACTA2 mRNA expression)
Experimental: Human hepatic stellate cells (manufactured by ScienCell Research Laboratories, Inc., 5300) were suspended in DMEM containing 10% FBS and […] penicillin/streptomycin/amphotericin B to prepare a cell suspension of 0.5×10^5 cells/mL, which was regarded as cells at the start of differentiation. The cells at the start of differentiation were dispensed at 1 mL/well to a 12-well plate and cultured, for differentiation, for 3 days in a 5% CO2 incubator (37° C.).
The culture solution in each well was removed, and DMEM containing 10% FBS and 1% penicillin/streptomycin/amphotericin B supplemented with a test compound dissolved in DMSO (final DMSO concentration: 0.1%) was added at 1 mL/well. The resultant was further cultured for 2 days in a 5% CO2 incubator (37° C.). In Test Example 4, the same reagents as in Test Example 1 were used unless otherwise specified.
RNA in the cultured cells was extracted using NucleoSpin® RNA (manufactured by Takara Bio Inc., U0955C), and cDNA was further synthesized from the extracted RNA using Prime Script™ RT reagent Kit with gDNA Eraser (manufactured by Takara Bio Inc., RR047A). Real time PCR was performed using the synthesized cDNA, various primers and TB Green® Premix Ex Taq™ II (manufactured by Takara Bio Inc., RR820A) and using PCR Thermal Cycler Dice Real Time (manufactured by Takara Bio Inc., System Code TP910, Model Code TP900). The primers used were actin alpha 2, smooth muscle (ACTA2) primer (manufactured by Takara Bio Inc., HA136273) and glyceraldehyde-3-phosphate dehydrogenase (GAPDH) primer (manufactured by Takara Bio Inc., HA067812).
The amplification curve of PCR was analyzed by the comparative Ct method. The expression level of ACTA2 mRNA was corrected with the expression level of GAPDH mRNA. An ACTA2 mRNA expression level when DMSO was added instead of the test compound was defined as 100%, and an ACTA2 mRNA expression level in the cells at the start of differentiation was defined as 0%. The rate of decrease in ACTA2 mRNA expression by the test compound was calculated according to the following expression.
Rate of decrease in ACTA2 mRNA expression (%)=[1−{(ACTA2 mRNA expression level in the case of adding the test compound)−(ACTA2 mRNA expression level in the cells at the start of differentiation)}/{(ACTA2 mRNA expression level in the case of adding DMSO)−(ACTA2 mRNA expression level in the cells at the start of differentiation)}]×100
An IC50 value was calculated from the rate of decrease in ACTA2 mRNA expression by the test compound. A: IC50<10 nM, B: 10 nM≤IC50<50 nM, C: 50 nM≤IC50<100 nM, or D: IC50≥100 nM.

αvβ1 = biological target: T1, αvβ1 (UniProt G3HZ55+P06756); assay: αvβ1 cell adhesion inhibition test (αv-transfected CHO cells on human fibronectin); type: cell-based; details: human fibronectin coating, 1 mM MnCl2, 1 hour, read-out: IC50 (rate of inhibition of cell adhesion, αvβ1)
T1 construct: expressed in transfected cells; host or cells: CHO cells deficient in α5 gene, transfected with αv gene
T1 sequence (P06756 31-889 limits assumed): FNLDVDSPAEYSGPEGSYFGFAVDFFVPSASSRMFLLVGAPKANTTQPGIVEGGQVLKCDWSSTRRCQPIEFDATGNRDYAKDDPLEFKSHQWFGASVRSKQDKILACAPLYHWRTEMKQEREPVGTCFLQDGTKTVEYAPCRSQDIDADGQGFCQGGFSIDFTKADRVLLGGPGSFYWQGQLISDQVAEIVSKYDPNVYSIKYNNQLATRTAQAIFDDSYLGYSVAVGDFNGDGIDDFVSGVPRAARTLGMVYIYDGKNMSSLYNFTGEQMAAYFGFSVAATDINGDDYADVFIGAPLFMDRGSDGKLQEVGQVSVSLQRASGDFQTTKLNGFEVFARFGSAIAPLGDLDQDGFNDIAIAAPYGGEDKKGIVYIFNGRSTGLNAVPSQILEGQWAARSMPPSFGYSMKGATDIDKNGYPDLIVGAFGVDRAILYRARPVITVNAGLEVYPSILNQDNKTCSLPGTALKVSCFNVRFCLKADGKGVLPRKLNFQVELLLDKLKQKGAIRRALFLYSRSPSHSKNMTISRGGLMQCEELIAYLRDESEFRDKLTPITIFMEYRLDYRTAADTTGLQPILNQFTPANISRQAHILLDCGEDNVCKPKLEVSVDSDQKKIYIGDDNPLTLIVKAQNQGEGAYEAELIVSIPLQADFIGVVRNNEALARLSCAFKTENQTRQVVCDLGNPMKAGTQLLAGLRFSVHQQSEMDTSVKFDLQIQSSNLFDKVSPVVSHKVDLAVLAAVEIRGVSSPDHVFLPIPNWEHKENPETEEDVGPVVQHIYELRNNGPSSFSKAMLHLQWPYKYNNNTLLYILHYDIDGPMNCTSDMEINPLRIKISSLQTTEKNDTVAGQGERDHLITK
T1 sequence (P06756 891-1048 limits assumed): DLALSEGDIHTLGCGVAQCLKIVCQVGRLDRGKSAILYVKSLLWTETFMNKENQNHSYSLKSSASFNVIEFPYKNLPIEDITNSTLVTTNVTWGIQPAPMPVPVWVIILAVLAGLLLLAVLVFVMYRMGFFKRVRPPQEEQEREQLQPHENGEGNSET
T1 sequence (G3HZ55 21-798): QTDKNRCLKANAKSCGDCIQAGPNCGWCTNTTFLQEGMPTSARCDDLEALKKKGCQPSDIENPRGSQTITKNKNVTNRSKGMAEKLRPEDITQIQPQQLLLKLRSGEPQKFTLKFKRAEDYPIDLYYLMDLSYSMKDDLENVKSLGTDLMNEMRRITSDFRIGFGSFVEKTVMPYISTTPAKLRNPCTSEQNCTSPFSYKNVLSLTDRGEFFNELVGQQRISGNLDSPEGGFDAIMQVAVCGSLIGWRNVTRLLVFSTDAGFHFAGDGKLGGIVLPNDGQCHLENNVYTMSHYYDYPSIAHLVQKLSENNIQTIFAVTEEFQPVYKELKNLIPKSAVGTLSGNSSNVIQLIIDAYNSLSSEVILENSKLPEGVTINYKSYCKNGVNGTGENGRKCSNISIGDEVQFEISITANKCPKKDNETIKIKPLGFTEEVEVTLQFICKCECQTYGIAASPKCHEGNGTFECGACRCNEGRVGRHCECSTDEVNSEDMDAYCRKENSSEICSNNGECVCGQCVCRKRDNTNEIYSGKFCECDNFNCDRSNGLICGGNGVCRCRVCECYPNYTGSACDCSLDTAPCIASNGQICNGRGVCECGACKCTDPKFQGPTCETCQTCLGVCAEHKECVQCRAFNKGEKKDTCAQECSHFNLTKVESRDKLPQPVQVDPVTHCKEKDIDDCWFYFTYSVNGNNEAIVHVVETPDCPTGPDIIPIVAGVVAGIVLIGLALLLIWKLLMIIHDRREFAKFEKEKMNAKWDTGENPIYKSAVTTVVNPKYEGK
Experimental: Test Example 1 was performed by partially modifying the method of Reed et al. (Sci Transl Med., 7 (288), 288ra79, 2015).
Human fibronectin (manufactured by Sigma-Aldrich Co. LLC, F0895) was prepared at 1.25 μg/mL with phosphate buffered saline (PBS), dispensed at 100 μL/well to a 96-well plate, and left standing overnight. The plate was washed with Hanks' balanced salt solution (HBSS), then subjected to blocking treatment with Dulbecco's modified Eagle medium (DMEM) containing 1% bovine serum-derived albumin (BSA) (FUJIFILM Wako Pure Chemical Corp., for cell culture, 017-22231), and used as a coated plate in the adhesion test.
αv-transfected cells (CHO cells deficient in α5 gene and transfected with αv gene) cultured in Ham's F-12 medium (FUJIFILM Wako Pure Chemical Corp., 087-08335) containing 10% fetal bovine serum (FBS), 1% penicillin/streptomycin/amphotericin B (manufactured by Thermo Fisher Scientific, Inc., 15240), 1 mM GlutaMAX Supplement (manufactured by Thermo Fisher Scientific, Inc., 35050), and 400 μg/mL hygromycin B (FUJIFILM Wako Pure Chemical Corp., 080-07683) were recovered and suspended in DMEM containing 1 mM MnCl2 (manufactured by Sigma-Aldrich Co. LLC, M1787) to prepare a cell suspension. A test compound dissolved in DMSO was added thereto.
The cell suspension of 1×10^6 cells/mL containing the test compound was added at 100 μL/well to the coated plate and left standing for 1 hour in a 5% CO2 incubator (37° C.). One hour later, the supernatant was removed, and the plate was washed with HBSS. The cells that adhered to each well in the plate were stained with crystal violet, and the cells were lysed, followed by absorbance measurement. Inhibition without substrate coating was defined as 100% inhibition, and inhibition when DMSO was added instead of the test compound was defined as 0% inhibition. The rate of inhibition of cell adhesion by the test compound was calculated according to the following expression.
Rate of inhibition of cell adhesion (%)=[1−{(Absorbance in the case of adding the test compound)−(Absorbance without substrate coating)}/{(Absorbance in the case of adding DMSO)−(Absorbance without substrate coating)}]×100
An IC50 value was calculated from the rate of inhibition of cell adhesion by the test compound. A: IC50<3 nM, B: 3 nM≤IC50<10 nM, C: 10 nM≤IC50<30 nM, D: 30 nM≤IC50<100 nM, or E: IC50≥100 nM.

Structure (SMILES) | pIC50 [1] | pIC50 (αvβ1)
O=C(O)C[C@H](NC(=O)CNC(=O)c1cc(NC2=NCC(F)CN2)c2cn[nH]c2c1)c1cc(Cl)cc(C(F)(F)F)c1 (stereo partly drawn) [Example 1-(b), (3S)-3-(3-chloro-5-(trifluoromethyl)phenyl)-3-(2-(4-((5-fluoro-1,4,5,6-tetrahydropyrimidin-2-yl)amino)-1H-indazole-6-carboxamido)acetamido)propanoic acid] | > 8.00 | > 8.52
O=C(O)C[C@H](NC(=O)CNC(=O)c1cc(NC2=NCC(F)CN2)c2cn[nH]c2c1)c1cc(Br)cc(C(F)(F)F)c1 (stereo partly drawn) [Example 2-(b), (3S)-3-(3-bromo-5-(trifluoromethyl)phenyl)-3-(2-(4-((5-fluoro-1,4,5,6-tetrahydropyrimidin-2-yl)amino)-1H-indazole-6-carboxamido)acetamido)propanoic acid] | 7.30 to 8.00 | 8.00 to 8.52
O=C(O)C[C@H](NC(=O)CNC(=O)c1cc(NC2=NCC(F)CN2)c2cn[nH]c2c1)c1cc(I)cc(C(F)(F)F)c1 (stereo partly drawn) [Example 3-(b), (3S)-3-(2-(4-((5-fluoro-1,4,5,6-tetrahydropyrimidin-2-yl)amino)-1H-indazole-6-carboxamido)acetamido)-3-(3-iodo-5-(trifluoromethyl)phenyl)propanoic acid] | 7.30 to 8.00 | 8.00 to 8.52
Cc1cc([C@H](CC(=O)O)NC(=O)CNC(=O)c2cc(NC3=NCC(F)CN3)c3cn[nH]c3c2)cc(C(F)(F)F)c1 (stereo partly drawn) [Example 4-(b), (3S)-3-(2-(4-((5-fluoro-1,4,5,6-tetrahydropyrimidin-2-yl)amino)-1H-indazole-6-carboxamido)acetamido)-3-(3-methyl-5-(trifluoromethyl)phenyl)propanoic acid] | 7.30 to 8.00 | 8.00 to 8.52
COc1cc([C@H](CC(=O)O)NC(=O)CNC(=O)c2cc(NC3=NCC(F)CN3)c3cn[nH]c3c2)cc(C(F)(F)F)c1 (stereo partly drawn) [Example 5-(b), (3S)-3-(2-(4-((5-fluoro-1,4,5,6-tetrahydropyrimidin-2-yl)amino)-1H-indazole-6-carboxamido)acetamido)-3-(3-methoxy-5-(trifluoromethyl)phenyl)propanoic acid] | > 8.00 | > 8.52
O=C(O)C[C@H](NC(=O)CNC(=O)c1cc(NC2=NCC(F)CN2)c2cn[nH]c2c1)c1cc(Cl)ccc1F (stereo partly drawn) [Example 22-(b), (3S)-3-(5-chloro-2-fluorophenyl)-3-(2-(4-((5-fluoro-1,4,5,6-tetrahydropyrimidin-2-yl)amino)-1H-indazole-6-carboxamido)acetamido)propanoic acid] | – | 7.52 to 8.00
O=C(O)C[C@H](NC(=O)CNC(=O)c1cc(NC2=NCC(F)CN2)c2cn[nH]c2c1)c1cc(Br)ccc1F (stereo partly drawn) [Example 23-(b), (3S)-3-(5-bromo-2-fluorophenyl)-3-(2-(4-((5-fluoro-1,4,5,6-tetrahydropyrimidin-2-yl)amino)-1H-indazole-6-carboxamido)acetamido)propanoic acid] | – | > 8.52
O=C(O)C[C@H](NC(=O)CNC(=O)c1cc(NC2=NCC(F)CN2)c2cn[nH]c2c1)c1ccc(F)c(OC(F)F)c1 (stereo partly drawn) [Example 27-(b), (3S)-3-(3-(difluoromethoxy)-4-fluorophenyl)-3-(2-(4-((5-fluoro-1,4,5,6-tetrahydropyrimidin-2-yl)amino)-1H-indazole-6-carboxamido)acetamido)propanoic acid] | – | > 8.52
O=C(O)C[C@H](NC(=O)CNC(=O)c1cc(NC2=NCC(F)CN2)c2cn[nH]c2c1)c1cc(OC(F)F)cc(-n2cccn2)c1 (stereo partly drawn) [Example 29-(b), (3S)-3-(3-(difluoromethoxy)-5-(1H-pyrazol-1-yl)phenyl)-3-(2-(4-((5-fluoro-1,4,5,6-tetrahydropyrimidin-2-yl)amino)-1H-indazole-6-carboxamido)acetamido)propanoic acid] | – | > 8.52
Cc1cc(C)n(-c2cccc([C@H](CC(=O)O)NC(=O)CNC(=O)c3cc(NC4=NCC(F)CN4)c4cn[nH]c4c3)c2)n1 (stereo partly drawn) [Example 44-(b), (3S)-3-(3-(3,5-dimethyl-1H-pyrazol-1-yl)phenyl)-3-(2-(4-((5-fluoro-1,4,5,6-tetrahydropyrimidin-2-yl)amino)-1H-indazole-6-carboxamido)acetamido)propanoic acid] | – | > 8.52
O=C(O)C[C@H](NC(=O)CNC(=O)c1cc(NC2=NCC(F)CN2)c2cn[nH]c2c1)c1cccc(N2CCOCC2)c1 (stereo partly drawn) [Example 45-(b), (3S)-3-(2-(4-((5-fluoro-1,4,5,6-tetrahydropyrimidin-2-yl)amino)-1H-indazole-6-carboxamido)acetamido)-3-(3-morpholinophenyl)propanoic acid] | – | > 8.52
O=C(O)C[C@H](NC(=O)CNC(=O)c1cc(NC2=NCC(F)CN2)c2cn[nH]c2c1)c1ccc(OC(F)F)cc1 (stereo partly drawn) [Example 46-(b), (3S)-3-(4-(difluoromethoxy)phenyl)-3-(2-(4-((5-fluoro-1,4,5,6-tetrahydropyrimidin-2-yl)amino)-1H-indazole-6-carboxamido)acetamido)propanoic acid] | – | 8.00 to 8.52
O=C(O)C[C@H](NC(=O)CNC(=O)c1cc(NC2=NCC(F)CN2)c2cn[nH]c2c1)c1ccc(C(F)(F)F)cc1 (stereo partly drawn) [Example 47-(b), (3S)-3-(2-(4-((5-fluoro-1,4,5,6-tetrahydropyrimidin-2-yl)amino)-1H-indazole-6-carboxamido)acetamido)-3-(4-(trifluoromethyl)phenyl)propanoic acid] | – | 8.00 to 8.52
O=C(O)C[C@H](NC(=O)CNC(=O)c1cc(NC2=NCC(O)CN2)c2cn[nH]c2c1)c1cc(Cl)cc(C(F)(F)F)c1 (stereo partly drawn) [Example 50-(b), (3S)-3-(3-chloro-5-(trifluoromethyl)phenyl)-3-(2-(4-((5-hydroxy-1,4,5,6-tetrahydropyrimidin-2-yl)amino)-1H-indazole-6-carboxamido)acetamido)propanoic acid] | – | 7.52 to 8.00
O=C(O)C[C@H](NC(=O)CNC(=O)c1cc(NC2=NCCCN2)c2cn[nH]c2c1)c1cc(Cl)cc(C(F)(F)F)c1 [Example 51-(b), (S)-3-(3-chloro-5-(trifluoromethyl)phenyl)-3-(2-(4-((1,4,5,6-tetrahydropyrimidin-2-yl)amino)-1H-indazole-6-carboxamido)acetamido)propanoic acid] | – | 7.00 to 7.52

— patent US20230192661A1, “1, 4, 5, 6-TETRAHYDROPYRIMIDINE-2-AMINE DERIVATIVE” (UBE Corporation, priority 2020, published 2023)
